Source: patent US20230174526A1, “BENZOTHIAZOLYL BIARYL COMPOUND, AND PREPARATION METHOD AND USE” (SHANGHAI RINGENE BIOPHARMA CO., LTD., priority 2020, published 2023)
Read-outs that look alike come from different tables or passages of the source.

Legend:
KRAS^G12C/SOS1 = molecular target: T1, KRAS^G12C/SOS1 (Homo sapiens, UniProt P01116, G12C); test: KRAS^G12C/SOS1 protein-protein interaction Binding assay (CisBio kit); settings: class symbols
T1 construct: purchased CisBio
Method: CisBio’s KRAS^G12C/SOS1 kit was used to test the efficacy of the compound on inhibiting the protein-protein interaction between SOS1 and KRAS^G12Cby Binding assay.Results were expressed as IC50values.
Test methods: (1) the test compound was tested at a concentration of 1000 nM. Diluted to 3-fold diluted compound of a 200-fold final concentration of 100% DMSO solution in a 384-well plate at 10 concentrations. 50 nL of 200-fold final concentration of compound was transferred to the destination plate 384 well plate using a dispenser Echo 550.50 nL of 100% DMSO was added to the negative control wells and positive control wells; (2) 4-fold final concentration of Tag1 SOS1 solution was prepared using Diluent buffer; (3) 2.5 µL of 4-fold final concentration of Tag1 SOS1 solution was added to the 384-well plate; (4) 4-fold final concentration of Tag2 KRAS^G12C solution was prepared using Diluent buffer; (5) 2.5 µL of 4-fold final concentration of Tag2 KRAS^G12C solution was added to compound wells and positive control wells, respectively; 2.5 µL of diluent buffer was added to negative control wells; (6) the 384-well plate was centrifuged at 1000 rpm for 30 seconds, shaken and mixed, and incubated at room temperature for 15 min; (7) 1-fold final concentration of Anti Tag1 TB3+ solution and 1-fold final concentration of Anti Tag2 XL665 solution were prepared with Detection buffer, and 5 µL of the mixture was added to each well after mixing the two solutions; (8) the 384-well plate was centrifuged at 1000 rpm for 30 seconds, shaken and mixed, and incubated at room temperature for 120 minutes; (9) the Envision enzyme marker was used to read
Em665/620; (10) data analysis, calculation formula; where Min signal is the mean value of negative control wells, Max signal is the mean value of positive control wells.The log value of concentration was used as the X-axis and the percentage inhibition as the Y-axis to fit the quantitative efficacy curve using the log(inhibitor) vs. response Variable slope of the quantitative efficacy curve of the analytical software GraphPad Prism 5 to derive the IC50 value of each compound on the enzyme activity.The fitting formula was: Y=Bottom+(Top Bottom)/(1+10^A((LogIC50X)^∗ HillSlope)).

[1] = tested on: MiaPaca-2 cells (pancreatic cancer); test: Proliferation test method 1 (2D, MTT), MiaPaca-2; format: cell-based; settings: 5-7 days, read-out: IC50/nM proliferation inhibitory activity on MiaPaca-2 cells
Method: (§1) Test method 1 (2D):NCI-H358 (lung cancer) and MiaPaca-2 cells (pancreatic cancer) cells (100 µL/well, 20,000 cells/mL) were inoculated in 96-well culture plates supplemented with 10% fetal bovine serum and 1% penicillin/streptomycin sulfate, respectively.Using 0.5% dimethyl sulfoxide as a blank control, cells were treated with a solution of the compound to be tested at a starting concentration of 10 µM, tripled diluted testing solution of the compound in eight gradients were used to treat cells, and then incubated in a 5% CO2 incubator for a certain period of time (5-7 days).At the end of incubation, 10 µL of MTT stock solution (5 mg/mL) was added to each well.The culture plates were incubated at 37° C. for 4 h and then the medium was removed.Dimethyl sulfoxide (100 µL) was added to each well and then shaken sufficiently. The absorbance of the product formazanwas measured at 570 nm on the Thermo Scientific Varioskan Flash multimode reader.IC50 values were obtained by fitting dose-response data into a three-parameter nonlinear regression model using GraphPad Prism 6.0 software.

NCI-H358 cells = test: Proliferation test method 2 (3D, Cell Titer Glo 3D), NCI-H358; format: cell-based; settings: Homo sapiens, NCI-H358, 96 h, read-out: IC50 cell proliferation inhibitory activity against NCI-H358
Method: (§2) Test method 2 (3D): The tumor cells in the logarithmic growth phase were diluted with culture solution to a certain concentration and inoculated on the 96-well plate on the ultra-low attachment surface, and the culture medium was 80 µL/well. Cells were incubated overnight at 37° C. in a humidity chamber. On the second day, a series of diluted test compounds (10 concentrations, 3 times dilution) were added to the plate, 20 µL/well, incubated in an incubator for 96h.The plates are removed and placed at room temperature and incubated with an equal volume of Cell Titer Glo®3D reagent for 1 h. The signal is detected by the En Vision™ plate reader. […] A four-parameter nonlinear regression curve was fitted to the percent inhibition for each concentration of the compound and the IC50 was calculated.

MiaPaca-2 cells = test: Proliferation test method 2 (3D, Cell Titer Glo 3D), MiaPaca-2; format: cell-based; settings: Homo sapiens, MIA PaCa-2, 96 h, read-out: IC50 cell proliferation inhibitory activity against MiaPaca-2
Method: as §2

[2] = tested on: phosphorylated ERK levels of NCI-H358; test: ERK phosphorylation (western blot), H358; format: cell-based; settings: Homo sapiens, 3 h
Method: (§3) Test method 3 (ERK phosphorylation): Miapaca-2 or H358 cells were inoculated at certain concentrations in 96-well plates and incubated overnight at 37° C., 5% CO2 in a cell culture incubator, and serial dilutions of the test compound (5 concentrations, 3-fold dilution) were added to the plates the next day for 24 h (Miapaca-2) or 3 h (H358), then lysis solution containing protease and phosphatase inhibitor were added to lyse the cells to extract proteins and western blot method was used to detect the level of p-ERK.

[3] = tested on: NCI-H358 (lung cancer) cells; test: Proliferation test method 1 (2D, MTT), NCI-H358; format: cell-based; settings: Homo sapiens, 5-7 days, read-out: IC50 proliferation inhibitory activity against NCI-H358
Method: as §1

[4] = tested on: phosphorylated ERK levels of MiaPaca-2; test: ERK phosphorylation (western blot), MiaPaca-2; format: cell-based; settings: Homo sapiens, MIA PaCa-2, 24 h
Method: as §3

T1 sequence (P01116 1-188 isoform P01116-2 G12C): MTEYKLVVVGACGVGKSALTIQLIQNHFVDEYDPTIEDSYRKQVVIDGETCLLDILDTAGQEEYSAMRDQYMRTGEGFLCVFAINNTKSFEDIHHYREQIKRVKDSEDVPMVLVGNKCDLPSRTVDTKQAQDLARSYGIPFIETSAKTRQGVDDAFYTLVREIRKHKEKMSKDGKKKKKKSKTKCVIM

Row | SMILES | IC50 (KRAS^G12C/SOS1) [nM] | IC50 ([1]; Homo sapiens, MIA PaCa-2, 2D) [nM] | further results
1 | C=CC(=O)N1CC2C(=O)N(C)c3cnc4c(F)c(-c5c(O)cccc5F)c(Cl)cc4c3N2CC1C (single isomer, unassigned) [Comparative Compound 2-2, reference compound] | > 1000 |  | 
2 | C=CC(=O)N1C[C@@H]2C(=O)N(C)c3cnc4c(F)c(-c5ccc(F)c6sc(N)nc56)c(Cl)cc4c3N2C[C@H]1C (single isomer, unassigned) [Example 17-2] |  |  | IC50 ([1]; 2D): 23.1 nM
3 | C=CC(=O)N1CCN(c2nc(OC[C@@H]3CCCN3C)nc3c(F)c(-c4ccc(F)c5sc(N)nc45)c(Cl)cc23)CC1CC#N (stereo partly drawn) [Example 12, 2-(1-acryloyl-4-(7-(2-Amino-7-Fluorobenzo [d] Thiazol-4-yl) -6-Chloro-8-Fluoro-2-(((S)-1-Methylpyrrolidin-2-yl) Methoxy) Quinazolin-4-yl) Piperazin-2-yl) Acetonitrile] | 50 to 200 | 19.3 | 
4 | C=CC(=O)N1CCN(c2c(C#N)cnc3c(F)c(-c4ccc(F)c5sc(N)nc45)c(Cl)cc23)CC1CC#N (centres unmarked) [Example 15, 4-(4-Acryloyl-3-(Cyanomethyl) Piperazin-1-yl)-7-(2-Amino-7-Fluorobenzo [d] Thiazol-4-yl)-6-Chloro-8-Fluoroquinolin-3-Cyano] | 200 to 1000 | 390 | 
5 | C=CC(=O)N1CCN(c2c(C#N)cnc3c(F)c(-c4ccc(F)c5sc(N)nc45)c(Cl)cc23)C[C@H]1C [Example 16, 4-((R)-4-Acryloyl-3-Methylpiperazin-1-yl)-7-(2-Amino-7-Fluorobenzo [d] Thiazol-4-yl)-6-Chloro-8-Fluoroquinolin-3 -Cyano] | 50 to 200 |  | IC50 [2]: < 500 nM; IC50 [3]: < 100 nM; IC50 [4]: < 500 nM; IC50 (NCI-H358 cells): < 200 nM; IC50 (MiaPaca-2 cells): < 200 nM
6 | C=CC(=O)N1CCN(c2nc(NCCC(=O)N(C)C)nc3c(F)c(-c4ccc(F)c5sc(N)nc45)c(Cl)cc23)CC1 [Example 19, 3-((4-(4-Acryloylpiperazin-1-yl)-7-(2-Amino-7-Fluorobenzo [d] Thiazol-4-yl)-6-Chloro-8-Fluoroquinazolin-2-yl) Amino)-N,N-Dimethylpropanamide] | 50 to 200 | 28 | 
7 | C=CC(=O)N1CCN(c2c(C#N)c(NCCC(=O)N(C)C)nc3c(F)c(-c4ccc(F)c5sc(N)nc45)c(Cl)cc23)CC1 [Example 22, 3-((4-(4-Acryloylpiperazin-1-yl)-7-(2-Amino-7-Fluorobenzo [d] Thiazol-4-yl)-6-Chloro-3-Cyano-8-Fluoroquinolin-2-yl) Amino)-N,N-Dimethylpropanamide] | 50 to 200 | 0.93 | 
8 | C=C(F)C(=O)N1C[C@@H]2C(=O)N(C)c3cnc4c(F)c(-c5ccc(F)c6sc(N)nc56)c(Cl)cc4c3N2C[C@H]1C [Example 28, (2R,4aR)-10-(2-Amino-7-Fluorobenzo[d]Thiazol-4-yl)-11-Chloro-9-Fluoro-3-(2-Fluoroacryloyl)-2,6-Dimethyl-2,3,4,4a-Tetrahydro-1H-Pyrazin [1′,2′:4,5] Pyrazin [2,3-c] Quinolin-5(6H)-one] | 50 to 200 | 63.2 | 

Second part, led by results:

Row | IC50 (KRAS^G12C/SOS1) [nM] | IC50 ([1]; Homo sapiens, MIA PaCa-2, 2D) [nM] | SMILES | further results
9 | < 50 | 13.2 | C=CC(=O)N1CCN(c2nc(NC[C@@H]3CCCN3C)nc3c(F)c(-c4ccc(F)c5sc(N)nc45)c(Cl)cc23)CC1 [Example 2, 1-(4-(7-(2-Amino-7-Fluorobenzo[d]Thiazol-4-yl)-6-Chloro-8-Fluoro-2-((((S)-1-Methylpyrrolidin-2-yl)Methyl)Amino)Quinazolin-4-yl)Piperazin-1-yl)Prop-2-En-1-One] | IC50 (NCI-H358 cells): < 200 nM; IC50 (MiaPaca-2 cells): < 200 nM
10 | < 50 | 1.1 | C=CC(=O)N1CCN(c2c(C#N)c(NC[C@@H]3CCCN3C)nc3c(F)c(-c4ccc(F)c5sc(N)nc45)c(Cl)cc23)CC1 [Example 4, 4-(4-Piperazinylacryloylpiperazin-1-yl)-7-(2-Amino-7-Fluorobenzo[d]Thiazol-4-Yl)-6-Chloro-8-Fluoro-2-((((S)-1-Methylpyrrolin-2-yl)Methyl)Amino)Quinoline-3-Cyano] | 
11 | < 50 |  | C=CC(=O)N1CCN(c2nc(OCCN(C)C)nc3c(F)c(-c4ccc(F)c5sc(N)nc45)c(Cl)cc23)CC1 [Example 5] | IC50 [2]: < 500 nM; IC50 [3]: < 100 nM; IC50 [4]: < 500 nM; IC50 (NCI-H358 cells): < 200 nM; IC50 (MiaPaca-2 cells): < 200 nM
12 | 50 to 200 | 35 | C=CC(=O)N1CCN(c2nc(Cl)nc3c(F)c(-c4ccc(F)c5sc(N)nc45)c(Cl)cc23)CC1 [Example 6, 1-(4-(7-(2-Amino-7-Fluorobenzo [d] Thiazol-4-yl)-2,6-Dichloro-8-Fluoroquinazolin-4-yl) Piperazin-1-yl) Prop-2-Ene-1-One] | 
13 | 50 to 200 | 23.1 | C=CC(=O)N1CCN(c2c(C#N)c(Cl)nc3c(F)c(-c4ccc(F)c5sc(N)nc45)c(Cl)cc23)CC1 [Example 7] | 
14 | 50 to 200 | 362 | C=C(F)C(=O)N1CCN(c2c(C#N)cnc3c(F)c(-c4ccc(F)c5sc(N)nc45)c(Cl)cc23)CC1 [Example 9, 7-(2-Amino-7-Fluorobenzo [d] Thiazol-4-yl) -6-Chloro-8-Fluoro-4-(4-(2-Fluoroacryloyl) Piperazin-1-yl) Quinolin-3-Cyano] | 
15 | < 50 | < 1 | C=CC(=O)N1CCN(c2nc(OC[C@@H]3C[C@@H](O)CN3C)nc3c(F)c(-c4ccc(F)c5sc(N)nc45)c(Cl)cc23)CC1 [Example 24, 1-(4-(7-(2-Amino-7-Fluorobenzo[d]Thiazol-4-yl)-6-Chloro-8-Fluoro-2-(((2S,4R)-4-Hydroxy-1-Methylpyrrolin-2-yl) Methoxy) Quinazolin-4-yl) Piperazin-1-yl) Prop-2-En-1-One] | 
16 | < 50 |  | C=CC(=O)N1CCN(c2nc(OC[C@@H]3C[C@H](F)CN3C)nc3c(F)c(-c4ccc(F)c5sc(N)nc45)c(Cl)cc23)CC1 [Example 25] | IC50 [2]: < 500 nM; IC50 [3]: < 100 nM; IC50 [4]: < 500 nM
17 | < 50 |  | C=CC(=O)N1CCN(c2nc(OC[C@@H]3C[C@@H](F)CN3C)nc3c(F)c(-c4ccc(F)c5sc(N)nc45)c(Cl)cc23)CC1 [Example 27] | IC50 ([1]; 2D): < 1 nM
